# In patent US9849130B2 (KamTek, Inc., priority 2014, dated 2017):
# Legend:
# C. perfringens MH310 = assay: microbe, parasite or virus in culture; assay type: cell-based; conditions: C. perfringens MH310
# Escherichia coli strains = assay: MIC by microdilution in Mueller-Hinton broth against Escherichia coli strains; assay type: cell-based; conditions: for MIC: Mueller-Hinton broth
# Enterococcus faecalis = assay: MIC by microdilution in Mueller-Hinton broth against Enterococcus faecalis strains; assay type: cell-based
# Enterococci faecium = assay: MIC by microdilution in Mueller-Hinton broth against Enterococci faecium strains; assay type: cell-based, Enterococcus faecium; conditions: Mueller-Hinton broth
# [1] = tested on: Staphylococcus aureus strains; assay: MIC by microdilution in Mueller-Hinton broth against Staphylococcus aureus strains; assay type: cell-based
# Bacteroides Strains = assay: MIC by microdilution in Brucella broth against Bacteroides strains; assay type: cell-based, Bacteroides spp.
# Fusobacterium = assay: MIC by microdilution in Brucella broth against Fusobacterium; assay type: cell-based, Fusobacterium spp.; conditions: Brucella broth
# Lactobacillus strains = assay: MIC against Lactobacillus strains; assay type: cell-based, Lactobacillus spp.; conditions: broth microdilution, BHI with 0.02% Tween 80, pH 6.0
# [2] = tested on: Lachnospiraceae and related bacterial strains; assay: MIC against Lachnospiraceae and related bacterial strains; assay type: cell-based, Lachnospiraceae spp.; conditions: broth microdilution, brucella broth
compound,measurement,setting,value
CCN=c1cc2n(-c3ccc(Cl)cc3)c3ccccc3nc-2cc1Nc1ccc(Cl)cc1 [B746],MIC,C. perfringens MH310; BB,0.5 µg/mL
same,MIC,C. perfringens MH310; BHI,1 µg/mL
same,activity against E. coli (in words),Escherichia coli strains,relatively inactive
same,MIC,Escherichia coli strains; Escherichia coli strain NR 6,>32 µg/mL
same,MIC,Escherichia coli strains; Escherichia coli strain NR 8,>32 µg/mL
same,MIC,Escherichia coli strains; Escherichia coli strain NR 96,>32 µg/mL
same,MIC,Escherichia coli strains; Escherichia coli strain NR 104,>32 µg/mL
same,MIC,Escherichia coli strains; Escherichia coli strain NR 17626,>32 µg/mL
same,MIC,Escherichia coli strains; Escherichia coli strain NR 17627,>32 µg/mL
same,MIC,Escherichia coli strains; Escherichia coli strain NR 17633,>32 µg/mL
same,MIC,Escherichia coli strains; Escherichia coli strain NR 17647,>32 µg/mL
same,MIC,Escherichia coli strains; Escherichia coli strain NR 17650,>32 µg/mL
same,MIC,Escherichia coli strains; Escherichia coli strain NR 17661,>32 µg/mL
same,MIC,Enterococcus faecalis; E. faecalis NR 31884,4 µg/mL
same,MIC,Enterococcus faecalis; E. faecalis NR 31885,4 µg/mL
same,MIC,Enterococcus faecalis; E. faecalis NR 31886,8 µg/mL
same,MIC,Enterococcus faecalis; E. faecalis NR 31887,4 µg/mL
same,MIC,Enterococcus faecalis; E. faecalis NR 31888,8 µg/mL
same,MIC,Enterococci faecium; E. faecium NR 31903,2 µg/mL
same,MIC,Enterococci faecium; E. faecium NR 31909,2 µg/mL
same,MIC,Enterococci faecium; E. faecium NR 31912,2 µg/mL
same,MIC,Enterococci faecium; E. faecium NR 31915,2 µg/mL
same,MIC,Enterococci faecium; E. faecium NR 31916,2 µg/mL
same,MIC,[1]; Staphylococcus aureus strain NR 10129,4 µg/mL
same,MIC,[1]; Staphylococcus aureus strain NR 10186,2 µg/mL
same,MIC,[1]; Staphylococcus aureus strain NR 10187,4 µg/mL
same,MIC,[1]; Staphylococcus aureus strain NR 10188,4 µg/mL
same,MIC,[1]; Staphylococcus aureus strain NR 10189,4 µg/mL
same,MIC,[1]; Staphylococcus aureus strain NR 10191,4 µg/mL
same,MIC,[1]; Staphylococcus aureus strain NR 10192,4 µg/mL
same,MIC,[1]; Staphylococcus aureus strain NR 10193,4 µg/mL
same,MIC,[1]; Staphylococcus aureus strain NR 10194,4 µg/mL
same,MIC,[1]; Staphylococcus aureus strain NR 10198,16 µg/mL
same,MIC,Bacteroides Strains; B. caccae HM728,1 µg/mL
same,MIC,Bacteroides Strains; B. eggerthii HM210,2 µg/mL
same,MIC,Bacteroides Strains; B. fragilis HM709,4 µg/mL
same,MIC,Bacteroides Strains; B. fragilis HM710,2 µg/mL
same,MIC,Bacteroides Strains; B. fragilis HM714,4 µg/mL
same,MIC,Bacteroides Strains; B. ovatus HM222,0.25 µg/mL
same,MIC,Bacteroides Strains; B. spp. HM18,1 µg/mL
same,MIC,Bacteroides Strains; B. spp. HM19,2 µg/mL
same,MIC,Bacteroides Strains; B. spp. HM20,1 µg/mL
same,MIC,Bacteroides Strains; B. spp. HM22,1 µg/mL
same,MIC,Bacteroides Strains; B. spp. HM23,2 µg/mL
same,MIC,Bacteroides Strains; B. spp. HM27,1 µg/mL
same,MIC,Bacteroides Strains; B. spp. HM28,2 µg/mL
same,MIC,Bacteroides Strains; B. spp. HM58,1 µg/mL
same,MIC,Bacteroides Strains; B. stercoris HM1036,1 µg/mL
same,MIC,Fusobacterium; F. nucleatum HM-75,16 µg/mL
same,MIC,Fusobacterium; F. nucleatum HM-260,>32 µg/mL
same,MIC,Fusobacterium; F. nucleatum HM-992,16 µg/mL
same,MIC,Fusobacterium; F. nucleatum HM-993,2 µg/mL
same,MIC,Fusobacterium; F. nucleatum HM-994,8 µg/mL
same,MIC,Fusobacterium; F. nucleatum HM-995,16 µg/mL
same,MIC,Fusobacterium; F. nucleatum HM-996,32 µg/mL
same,MIC,Fusobacterium; F. nucleatum HM-997,16 µg/mL
same,MIC,Fusobacterium; Fusobacterium sp. HM 42,>32 µg/mL
same,MIC,Fusobacterium; Fusobacterium sp. HM 57,>32 µg/mL
same,MIC,Fusobacterium; Fusobacterium sp. HM-556,8 µg/mL
same,MIC,Fusobacterium; Fusobacterium sp. HM-758,>32 µg/mL
same,MIC,Fusobacterium; Fusobacterium sp. HM-871,8 µg/mL
same,MIC,Fusobacterium; Fusobacterium sp. HM-874,16 µg/mL
same,MIC,Fusobacterium; Fusobacterium sp. HM-875,8 µg/mL
same,MIC,Lactobacillus strains; Lactobacillus crispatus HM-637,8 µg/mL
same,MIC,Lactobacillus strains; Lactobacillus gasseri HM-104,16 µg/mL
same,MIC,Lactobacillus strains; Lactobacillus iners HM-126,4 µg/mL
same,MIC,Lactobacillus strains; Lactobacillus jensenii HM-105,>32 µg/mL
same,MIC,Lactobacillus strains; Lactobacillus jhonsonii HM-643,32 µg/mL
same,MIC,Lactobacillus strains; Lactobacillus reuteri HM-102,32 µg/mL
same,MIC,Lactobacillus strains; Lactobacillus rhamnosus HM-106,>32 µg/mL
same,MIC,Lactobacillus strains; Lactobacillus sp. HM-228,4 µg/mL
same,MIC,Lactobacillus strains; Lactobacillus sp. HM-478,16 µg/mL
same,MIC,Lactobacillus strains; Lactobacillus vaginalis HM-405,4 µg/mL
same,MIC,[2]; Clostridiales bacterium HM-84,0.062 µg/mL
same,MIC,[2]; Clostridiales bacterium HM-182,1 µg/mL
same,MIC,[2]; Eubacterium sp. HM-178,0.5 µg/mL
same,MIC,[2]; Lachnospiraceae sp. HM-7,≦0.031 μg/ml
same,MIC,[2]; Lachnospiraceae sp. HM-150,0.5 µg/mL
same,MIC,[2]; Lachnospiraceae sp. HM-153,0.5 µg/mL
same,MIC,[2]; Lachnospiraceae sp. HM-154,0.5 µg/mL
same,MIC,[2]; Lachnospiraceae sp. HM-157,0.5 µg/mL
same,MIC,[2]; Lachnospiraceae sp. HM-161,0.25 µg/mL
same,MIC,[2]; Lachnospiraceae sp. HM-480,0.125 µg/mL
same,MIC,[2]; Lachnospiraceae sp. HM-558,0.125 µg/mL
same,MIC,[2]; Lachnospiraceae sp. HM-768,≦0.031 μg/ml
same,MIC,[2]; Lachnospiraceae sp. HM-868,2 µg/mL
same,MIC,[2]; Peptostreptococcaceae sp. HM-766,1 µg/mL
